Results on one compound are retold here after patent US11326191B2 (LYGOS, INC., priority 2016, dated 2022).

The nature of data set [1]: Thermal stability of malonic acid (decarboxylation to acetic acid). It is filed as physicochemical.
A short description of data set [2]: Malonic acid solubility in water at various temperatures. It is filed as physicochemical. The following applies: 65° C.

Regarding `O=C(O)CC(=O)O` [malonic acid, propanedioic acid], the “temperature at which malonic acid decarboxylates to form acetic acid” value in data set [1] is “approximately 80 °C”. Also, in data set [1] (under acidic conditions), the “temperature at which malonic acid begins to rapidly decompose” value is “about 80 °C”. Besides, the “solubility limit of malonic acid” value in data set [2] was 76 % wt/wt.
